Data on 13 molecules can be found in ChEMBL document CHEMBL5465560, “Selectivity Literature for EUbOPEN Chemogenomic Library” (2024).

The target in test [1] is Cyclin-Y/Cyclin-dependent kinase 16 (Homo sapiens) (UniProt Q00536+Q8ND76). Kind of test: Selectivity interaction (LanthaScreen Eu Kinase Binding Assay) EUB0001632a CDK16. The settings on record: at 10 µM. The format is protein-complex assay. (In general: In TR-FRET formats the signal depends on donor and acceptor labels being close together.)
Test [2] concerns the target Receptor tyrosine-protein kinase erbB-2 (Homo sapiens, UniProt P04626). Description: Selectivity interaction (Ambit KINOMEscan and KiNATiv profiling in Jurkat cells) EUB0000090b ERBB2. The note with it: at 1 µM. Format: cell-based.
Test [3] deals with RAF proto-oncogene serine/threonine-protein kinase (Homo sapiens) (UniProt P04049). Description: Selectivity interaction (Ambit KINOMEscan and KiNATiv profiling in Jurkat cells) EUB0000090b RAF1. The format is cell-based. The settings on record: at 1 µM.
Sequence of RAF proto-oncogene serine/threonine-protein kinase (Homo sapiens) (P04049 whole entry): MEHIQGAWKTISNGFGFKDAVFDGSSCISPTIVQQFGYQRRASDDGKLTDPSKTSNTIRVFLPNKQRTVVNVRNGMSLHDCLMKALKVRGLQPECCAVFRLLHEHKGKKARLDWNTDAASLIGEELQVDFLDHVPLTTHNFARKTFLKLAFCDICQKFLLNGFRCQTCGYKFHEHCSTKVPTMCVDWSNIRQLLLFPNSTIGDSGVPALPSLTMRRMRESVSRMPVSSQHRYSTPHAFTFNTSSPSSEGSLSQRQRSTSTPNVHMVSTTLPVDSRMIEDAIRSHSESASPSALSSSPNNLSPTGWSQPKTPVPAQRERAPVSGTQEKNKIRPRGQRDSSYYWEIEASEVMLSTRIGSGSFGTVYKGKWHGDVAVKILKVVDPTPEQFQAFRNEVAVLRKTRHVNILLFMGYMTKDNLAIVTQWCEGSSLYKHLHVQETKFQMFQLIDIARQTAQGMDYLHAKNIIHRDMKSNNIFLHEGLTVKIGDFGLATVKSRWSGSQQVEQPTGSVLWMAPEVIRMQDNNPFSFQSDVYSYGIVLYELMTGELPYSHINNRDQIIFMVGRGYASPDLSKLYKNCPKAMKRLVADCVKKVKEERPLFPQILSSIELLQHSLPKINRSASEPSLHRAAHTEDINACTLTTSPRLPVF
The target of test [4] is SRSF protein kinase 1 (Homo sapiens, UniProt Q96SB4). The note with it: at 10 µM.
In test [5] the target is Ephrin type-A receptor 4 (Homo sapiens, UniProt P54764). Description: Selectivity interaction (KinomeScan (DiscoverX)) EUB0000229b EPHA4. The note with it: at 10 µM.
Sequence of Ephrin type-A receptor 4 (P54764 whole entry): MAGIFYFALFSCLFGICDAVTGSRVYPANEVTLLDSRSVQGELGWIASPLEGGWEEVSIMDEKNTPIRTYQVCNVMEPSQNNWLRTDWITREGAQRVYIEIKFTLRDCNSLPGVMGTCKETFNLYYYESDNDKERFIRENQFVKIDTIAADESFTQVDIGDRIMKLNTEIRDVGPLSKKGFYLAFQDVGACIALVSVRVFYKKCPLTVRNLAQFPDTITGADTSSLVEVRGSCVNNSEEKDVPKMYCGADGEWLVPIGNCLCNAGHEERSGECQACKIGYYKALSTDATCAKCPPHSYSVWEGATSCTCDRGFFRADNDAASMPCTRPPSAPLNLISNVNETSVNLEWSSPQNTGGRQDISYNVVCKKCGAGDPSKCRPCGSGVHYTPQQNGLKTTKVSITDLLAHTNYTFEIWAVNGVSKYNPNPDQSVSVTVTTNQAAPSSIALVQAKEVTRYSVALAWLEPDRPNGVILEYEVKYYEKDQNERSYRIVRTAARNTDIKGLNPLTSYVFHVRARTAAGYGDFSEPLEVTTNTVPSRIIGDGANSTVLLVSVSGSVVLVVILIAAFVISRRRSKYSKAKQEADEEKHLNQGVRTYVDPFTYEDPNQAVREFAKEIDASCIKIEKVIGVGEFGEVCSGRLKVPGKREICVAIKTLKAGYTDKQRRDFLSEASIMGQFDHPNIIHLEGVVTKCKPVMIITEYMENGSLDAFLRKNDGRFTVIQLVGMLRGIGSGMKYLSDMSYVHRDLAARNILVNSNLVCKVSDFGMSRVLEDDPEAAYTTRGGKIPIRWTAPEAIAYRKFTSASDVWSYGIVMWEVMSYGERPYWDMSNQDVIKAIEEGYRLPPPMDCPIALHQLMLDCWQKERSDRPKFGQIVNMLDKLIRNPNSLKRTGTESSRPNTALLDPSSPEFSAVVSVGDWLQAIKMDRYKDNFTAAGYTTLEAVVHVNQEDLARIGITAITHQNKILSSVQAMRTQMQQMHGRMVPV
The target in test [6] is Mitogen-activated protein kinase 1 (Homo sapiens, UniProt P28482). Kind of test: Selectivity interaction (KinomeScan (DiscoverX)) EUB0001079a MAPK1. The settings on record: at 1 µM.
Test [7] deals with Serine/threonine-protein kinase mTOR (Homo sapiens, UniProt P42345). Kind of test: Selectivity interaction (ActivX KiNativ screen (ex vivo kinase selectivity in human PBMCs)) EUB0001619a MTOR. The format is cell-based. The note with it: PBMC, at 1 µM.
For test [8], the target named is Serine/threonine-protein kinase/endoribonuclease IRE1 (Homo sapiens) (UniProt O75460). Kind of test: Selectivity interaction (ActivX KiNativ screen (ex vivo kinase selectivity in human PBMCs)) EUB0001619a ERN1. The format is cell-based. The note with it: PBMC, at 1 µM.
The target of test [9] is Cyclin-dependent kinase 18 (Homo sapiens) (UniProt Q07002). Description: Selectivity interaction (ActivX KiNativ screen (kinase selectivity in THP-1 cell lysates)) EUB0000639a CDK18. Format: subcellular. The note with it: lysate.
Sequence of Cyclin-dependent kinase 18 (Homo sapiens) (Q07002 whole entry): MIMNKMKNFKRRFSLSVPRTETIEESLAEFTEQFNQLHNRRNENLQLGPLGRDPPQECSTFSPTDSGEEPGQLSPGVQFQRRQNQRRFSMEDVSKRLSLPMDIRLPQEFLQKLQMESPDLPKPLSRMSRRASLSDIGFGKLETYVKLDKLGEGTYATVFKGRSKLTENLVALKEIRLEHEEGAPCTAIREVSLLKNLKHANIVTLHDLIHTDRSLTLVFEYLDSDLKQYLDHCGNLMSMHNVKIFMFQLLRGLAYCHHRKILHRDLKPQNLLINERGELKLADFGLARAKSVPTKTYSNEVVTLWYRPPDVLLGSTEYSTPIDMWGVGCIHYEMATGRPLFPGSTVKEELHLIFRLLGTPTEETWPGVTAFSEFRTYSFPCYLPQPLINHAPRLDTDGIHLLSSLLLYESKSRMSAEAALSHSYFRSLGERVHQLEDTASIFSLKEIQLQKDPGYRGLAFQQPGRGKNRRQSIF
The target in test [10] is Proto-oncogene tyrosine-protein kinase ROS (Homo sapiens) (UniProt P08922). Description: Selectivity interaction (Kinase screening (Nanosyn)) EUB0000604a ROS1.
Sequence of Proto-oncogene tyrosine-protein kinase ROS (Homo sapiens) (P08922 whole entry): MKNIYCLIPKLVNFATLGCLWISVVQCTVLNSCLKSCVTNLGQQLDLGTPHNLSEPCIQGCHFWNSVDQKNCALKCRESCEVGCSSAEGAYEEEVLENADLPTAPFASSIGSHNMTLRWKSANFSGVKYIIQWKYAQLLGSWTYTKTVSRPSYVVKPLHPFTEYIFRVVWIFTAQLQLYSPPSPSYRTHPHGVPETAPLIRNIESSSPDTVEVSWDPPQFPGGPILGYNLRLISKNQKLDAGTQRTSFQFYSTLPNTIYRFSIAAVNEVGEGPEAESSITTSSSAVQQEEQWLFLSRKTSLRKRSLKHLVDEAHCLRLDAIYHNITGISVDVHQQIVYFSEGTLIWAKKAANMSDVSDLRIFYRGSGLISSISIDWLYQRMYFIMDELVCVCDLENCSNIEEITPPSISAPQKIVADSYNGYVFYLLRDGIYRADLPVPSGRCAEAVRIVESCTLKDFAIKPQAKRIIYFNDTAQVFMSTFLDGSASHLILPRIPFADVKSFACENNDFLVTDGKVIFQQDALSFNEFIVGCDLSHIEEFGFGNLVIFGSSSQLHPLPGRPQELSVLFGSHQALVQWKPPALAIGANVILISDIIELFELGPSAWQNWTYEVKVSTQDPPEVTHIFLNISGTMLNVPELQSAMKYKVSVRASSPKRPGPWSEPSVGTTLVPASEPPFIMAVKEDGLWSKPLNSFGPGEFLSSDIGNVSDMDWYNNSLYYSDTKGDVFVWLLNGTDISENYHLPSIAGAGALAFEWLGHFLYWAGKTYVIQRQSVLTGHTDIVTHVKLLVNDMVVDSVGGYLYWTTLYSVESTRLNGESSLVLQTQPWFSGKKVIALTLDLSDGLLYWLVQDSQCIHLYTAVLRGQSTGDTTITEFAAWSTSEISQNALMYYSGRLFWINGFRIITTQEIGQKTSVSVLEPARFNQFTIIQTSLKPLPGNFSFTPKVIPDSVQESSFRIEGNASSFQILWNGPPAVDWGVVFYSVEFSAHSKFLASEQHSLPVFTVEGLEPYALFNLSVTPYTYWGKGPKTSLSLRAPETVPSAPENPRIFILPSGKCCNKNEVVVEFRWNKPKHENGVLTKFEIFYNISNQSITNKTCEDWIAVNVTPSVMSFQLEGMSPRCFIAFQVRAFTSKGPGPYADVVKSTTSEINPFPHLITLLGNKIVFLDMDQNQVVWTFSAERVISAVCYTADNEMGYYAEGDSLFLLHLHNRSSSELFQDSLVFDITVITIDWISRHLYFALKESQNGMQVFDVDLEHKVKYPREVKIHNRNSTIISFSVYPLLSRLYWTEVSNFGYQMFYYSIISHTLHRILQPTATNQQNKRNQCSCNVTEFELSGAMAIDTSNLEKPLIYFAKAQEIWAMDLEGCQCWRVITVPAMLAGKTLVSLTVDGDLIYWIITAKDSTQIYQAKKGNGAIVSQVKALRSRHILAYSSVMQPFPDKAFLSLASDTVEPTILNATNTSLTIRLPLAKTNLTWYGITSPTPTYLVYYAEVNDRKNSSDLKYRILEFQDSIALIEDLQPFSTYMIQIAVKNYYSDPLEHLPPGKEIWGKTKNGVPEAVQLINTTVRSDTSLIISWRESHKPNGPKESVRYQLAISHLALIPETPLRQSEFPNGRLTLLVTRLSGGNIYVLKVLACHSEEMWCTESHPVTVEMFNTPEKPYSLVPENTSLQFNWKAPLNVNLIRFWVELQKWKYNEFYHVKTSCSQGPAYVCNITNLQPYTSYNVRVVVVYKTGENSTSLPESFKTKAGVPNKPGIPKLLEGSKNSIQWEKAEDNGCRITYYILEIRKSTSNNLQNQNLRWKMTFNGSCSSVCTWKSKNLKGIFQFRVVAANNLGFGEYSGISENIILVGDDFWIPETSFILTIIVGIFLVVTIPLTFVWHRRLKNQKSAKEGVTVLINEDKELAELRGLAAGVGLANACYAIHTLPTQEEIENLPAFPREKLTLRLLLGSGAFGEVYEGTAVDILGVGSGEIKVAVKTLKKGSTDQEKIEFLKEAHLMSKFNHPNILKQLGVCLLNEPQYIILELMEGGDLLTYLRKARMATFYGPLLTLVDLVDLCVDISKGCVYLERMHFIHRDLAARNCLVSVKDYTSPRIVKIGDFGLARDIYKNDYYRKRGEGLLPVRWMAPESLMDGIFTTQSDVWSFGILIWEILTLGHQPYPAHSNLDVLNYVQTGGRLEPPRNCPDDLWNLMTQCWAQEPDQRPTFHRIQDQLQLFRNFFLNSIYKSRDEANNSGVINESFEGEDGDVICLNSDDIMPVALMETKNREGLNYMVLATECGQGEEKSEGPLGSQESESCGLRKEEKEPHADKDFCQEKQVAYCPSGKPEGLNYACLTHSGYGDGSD
Test [11] concerns the target Leukocyte tyrosine kinase receptor (Homo sapiens, UniProt P29376). The note with it: at 10 µM.
Test [12] has as its target T1, Peripheral plasma membrane protein CASK (Homo sapiens) (UniProt O14936).
T1 sequence (whole entry): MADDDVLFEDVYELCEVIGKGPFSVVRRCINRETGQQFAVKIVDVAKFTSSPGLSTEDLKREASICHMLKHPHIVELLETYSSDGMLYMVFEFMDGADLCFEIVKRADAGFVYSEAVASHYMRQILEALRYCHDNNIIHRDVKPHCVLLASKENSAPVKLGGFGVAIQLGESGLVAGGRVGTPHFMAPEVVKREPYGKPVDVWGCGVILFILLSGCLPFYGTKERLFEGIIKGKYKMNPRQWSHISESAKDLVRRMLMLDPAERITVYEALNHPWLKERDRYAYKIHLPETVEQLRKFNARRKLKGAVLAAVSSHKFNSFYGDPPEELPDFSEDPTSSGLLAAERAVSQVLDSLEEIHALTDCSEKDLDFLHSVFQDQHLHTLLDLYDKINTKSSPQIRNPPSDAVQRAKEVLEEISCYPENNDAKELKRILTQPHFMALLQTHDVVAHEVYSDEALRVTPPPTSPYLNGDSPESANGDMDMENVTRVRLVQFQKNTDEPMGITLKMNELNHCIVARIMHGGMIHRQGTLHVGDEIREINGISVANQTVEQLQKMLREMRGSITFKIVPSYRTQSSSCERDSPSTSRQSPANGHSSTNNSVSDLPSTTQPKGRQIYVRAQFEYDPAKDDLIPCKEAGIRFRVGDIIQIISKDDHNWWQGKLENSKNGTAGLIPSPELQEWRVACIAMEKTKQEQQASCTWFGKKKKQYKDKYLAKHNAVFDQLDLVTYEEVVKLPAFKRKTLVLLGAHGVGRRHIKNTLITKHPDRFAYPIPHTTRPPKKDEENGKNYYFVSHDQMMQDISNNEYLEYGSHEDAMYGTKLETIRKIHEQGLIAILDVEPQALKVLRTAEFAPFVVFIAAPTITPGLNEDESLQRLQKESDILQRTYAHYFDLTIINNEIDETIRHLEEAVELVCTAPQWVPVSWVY
Kind of test: Selectivity interaction (KinomeScan (DiscoverX)) EUB0001049a CASK. The settings on record: at 1 µM.

Test [13] deals with Dual specificity protein kinase CLK3 (Homo sapiens, UniProt P49761). Kind of test: Selectivity interaction (Enzymatic assay (Eurofins)) EUB0001049a CLK3.
The target of test [14] is T2, Serine/threonine-protein kinase tousled-like 1 (Homo sapiens) (UniProt Q9UKI8).
T2 sequence (whole entry): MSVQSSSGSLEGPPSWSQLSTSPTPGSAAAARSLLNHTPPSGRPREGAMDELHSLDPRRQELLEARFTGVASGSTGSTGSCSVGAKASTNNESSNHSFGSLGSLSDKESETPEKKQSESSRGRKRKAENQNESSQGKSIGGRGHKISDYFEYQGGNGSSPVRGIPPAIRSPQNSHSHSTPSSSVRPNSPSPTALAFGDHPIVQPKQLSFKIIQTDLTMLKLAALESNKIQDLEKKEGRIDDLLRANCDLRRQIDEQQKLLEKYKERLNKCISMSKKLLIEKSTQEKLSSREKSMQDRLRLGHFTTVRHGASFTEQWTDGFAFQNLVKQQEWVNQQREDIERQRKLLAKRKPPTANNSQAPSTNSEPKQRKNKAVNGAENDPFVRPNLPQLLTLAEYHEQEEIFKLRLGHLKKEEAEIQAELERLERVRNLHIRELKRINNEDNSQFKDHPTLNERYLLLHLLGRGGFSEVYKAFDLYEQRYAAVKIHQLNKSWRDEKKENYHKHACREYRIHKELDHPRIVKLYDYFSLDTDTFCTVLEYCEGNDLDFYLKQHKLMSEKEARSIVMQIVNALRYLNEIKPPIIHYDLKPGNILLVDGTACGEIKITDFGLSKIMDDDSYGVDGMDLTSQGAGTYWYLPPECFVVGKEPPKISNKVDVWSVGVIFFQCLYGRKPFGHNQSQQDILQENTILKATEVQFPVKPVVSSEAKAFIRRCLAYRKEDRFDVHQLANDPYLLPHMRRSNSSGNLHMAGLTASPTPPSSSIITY
Kind of test: Selectivity interaction (KinomeScan (DiscoverX)) EUB0000695a TLK1. The note with it: at 100 nM.

Test [15] concerns the target LIM domain kinase 1 (Homo sapiens) (UniProt P53667). Kind of test: Selectivity interaction (KinomeScan (DiscoverX)) EUB0000092b LIMK1. The note with it: at 10 µM.
Test [16] has as its target SRSF protein kinase 2 (Homo sapiens) (UniProt P78362). Description: Selectivity interaction (KinomeScan (DiscoverX)) EUB0000092b SRPK2. The note with it: at 10 µM.
Test [17] has as its target Death-associated protein kinase 2 (Homo sapiens) (UniProt Q9UIK4). Description: Selectivity interaction (Upstate Kinase Profiler service (Millipore)) EUB0000056c DAPK2. The settings on record: at 1 µM.

Sequence of LIM domain kinase 1 (Homo sapiens) (P53667 whole entry, looked up, the tested form may be a part): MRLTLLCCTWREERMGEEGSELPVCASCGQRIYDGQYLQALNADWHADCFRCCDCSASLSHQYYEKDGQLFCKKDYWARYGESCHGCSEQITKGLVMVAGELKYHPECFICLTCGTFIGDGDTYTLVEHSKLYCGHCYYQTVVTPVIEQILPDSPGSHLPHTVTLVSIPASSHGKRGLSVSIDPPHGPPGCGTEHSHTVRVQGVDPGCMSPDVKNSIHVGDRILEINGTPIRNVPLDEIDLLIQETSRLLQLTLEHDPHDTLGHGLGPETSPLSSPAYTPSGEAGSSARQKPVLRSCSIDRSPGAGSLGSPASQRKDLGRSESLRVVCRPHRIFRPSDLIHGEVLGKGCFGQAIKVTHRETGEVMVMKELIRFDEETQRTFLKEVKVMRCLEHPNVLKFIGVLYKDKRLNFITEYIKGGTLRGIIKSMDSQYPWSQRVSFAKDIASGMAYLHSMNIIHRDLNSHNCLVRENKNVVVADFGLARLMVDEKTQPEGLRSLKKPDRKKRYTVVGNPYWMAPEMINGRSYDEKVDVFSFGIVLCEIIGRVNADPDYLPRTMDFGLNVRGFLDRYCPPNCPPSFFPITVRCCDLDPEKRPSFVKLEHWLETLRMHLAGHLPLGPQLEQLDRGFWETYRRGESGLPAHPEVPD

Take `Cn1cc(-n2cnc3c(NCc4nc5cc(Cl)c(Cl)cc5[nH]4)nc(N4CCOCC4)nc32)cn1`: in test [1], the % of inhibition was determined as 15%.
With `CN(C)C/C=C/C(=O)Nc1ccc(C(=O)N2CCCC(Nc3ncc(Cl)c(-c4c[nH]c5ccccc45)n3)C2)cc1` (stereo unspecified), the % of control in [2] was 96%; in test [3], 91%.
Molecule `Cc1cc([C@@H](C)Nc2ccccc2C(=O)O)c2nc(N3CCOCC3)cc(=O)n2c1` [AZD-6482] registered a % of control in test [4] of 100%.
The molecule `COc1cc(N(C)c2ccnc3ccc(C(F)(F)F)cc23)cc(OC)c1OC` had a % binding in [5] of 100%.
Turning to `Nc1cnc(N2CCc3cc(S(=O)(=O)Nc4c(F)cc(Cl)cc4F)cc(N4CCCC4=O)c32)nc1` [TP-020n], in test [6], the % of control came to 100%.
For the molecule `N#Cc1cccc(-c2c[nH]c3ncnc(N4CCOCC4)c23)c1`, the % of inhibition in [7] amounted to 10%; in test [8], 2%.
On to `CC[C@@H]1[C@H](F)C(=O)N[C@@H]1COc1nccc2cc(C(N)=O)c(OC)cc12` [ZIMLOVISERTIB], for which the % of inhibition is -0.6% in test [9] (at 0.01 µM); 0.5% in [9] (at 0.04 µM); -0.8% in test [9] (at 0.2 µM); 7.7% in test [9] (at 1 µM); 41.7% in [9] (at 5 µM).
`Cc1cnc(Nc2ccc(F)cc2Cl)nc1-c1c[nH]c(C(=O)N[C@H](CO)c2cccc(Cl)c2)c1`: the % of inhibition in [10] turned out to be 3%.
For the molecule `CCN(CC)CCCCNc1ncc2cc(-c3cc(OC)cc(OC)c3)c(NC(=O)NC(C)(C)C)nc2n1`, in [11], the % of control came to 100%.
For `COc1cc(Nc2nc(C)cc(-c3cnn4nc(OC)ccc34)n2)cc(C(F)(F)F)c1`, the % of control in test [12] was found to be 65%. In [13], the IC50 (commonly the midpoint of a concentration-inhibition curve) is greater than 10 µM.
Consider `Cc1cc(F)c(C(=O)Nc2cccc(-c3nncn3C(C)C)n2)cc1-n1cnc(C2CC2)c1`, for which the % of control in test [14] worked out at 88%.
As to `CCC(=O)N1CCN(c2ccc(-n3c(=O)ccc4cnc5ccc(-c6cnc7ccccc7c6)cc5c43)cc2C(F)(F)F)CC1`, the % of control in test [15] came to 15%; in test [16], 100%.
For the molecule `Cc1ccc(-c2ccc3c(ccc4sc5c(c43)NC[C@@H](C)NC5=O)n2)cn1`, the % of inhibition in test [17] was 30%.
